The source of these data is publication PMC6852662 (Organic & biomolecular chemistry, 2019).

The target of the assay is T1, PmST1 (Pasteurella multocida, UniProt Q15KI8).
T1 sequence (Q15KI8 26-412): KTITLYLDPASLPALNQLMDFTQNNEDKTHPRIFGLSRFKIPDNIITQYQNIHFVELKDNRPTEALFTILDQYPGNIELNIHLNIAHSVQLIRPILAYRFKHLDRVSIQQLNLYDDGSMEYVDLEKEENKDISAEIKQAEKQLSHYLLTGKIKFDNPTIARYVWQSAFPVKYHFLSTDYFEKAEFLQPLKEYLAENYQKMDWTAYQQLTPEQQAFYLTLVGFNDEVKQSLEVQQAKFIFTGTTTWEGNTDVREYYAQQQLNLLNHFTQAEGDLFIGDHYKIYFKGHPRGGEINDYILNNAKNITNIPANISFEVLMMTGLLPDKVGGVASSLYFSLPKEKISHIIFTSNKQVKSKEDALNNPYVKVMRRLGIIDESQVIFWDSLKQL
The assay is described as follows: sialylation, conversion. The assay is classed as biochemical. The note with it: poor substrate; prolonged incubation.

For the substance Gb5 [4a], the conversion is on record as ~ 30%.
